Experimental data: article PMC8550792, “Evolution of kinase polypharmacology across HSP90 drug discovery” (Cell Chemical Biology, 2021)

Legend:
[1] = system: RPS6KA3; design: method as in ChEMBL23 (accessed: 23/08/2018); settings: average of reported values; ref ChEMBL23 (accessed: 23/08/2018); cited from earlier work
[2] = target: T1, YES/YES1 (Homo sapiens, UniProt P07947); experiment: HotSpot in vitro kinase radiometric assay; format: biochemical
T1 construct: purchased Reaction Biology (HotSpot contract assay)

[3] = system: PRKD2; design: method as in ChEMBL23 (accessed: 23/08/2018); settings: average of reported values; ref ChEMBL23 (accessed: 23/08/2018); cited from earlier work
[4] = target: T2, TRKC (Homo sapiens, UniProt Q16288); experiment: HotSpot in vitro kinase radiometric assay; format: biochemical
T2 construct: purchased Reaction Biology (HotSpot contract assay)

[5] = target: ABL1 (Homo sapiens, UniProt P00519); experiment: HotSpot in vitro kinase radiometric assay; format: biochemical; design: purchased Reaction Biology (HotSpot contract assay)
ABL1, sequence (P00519 whole entry): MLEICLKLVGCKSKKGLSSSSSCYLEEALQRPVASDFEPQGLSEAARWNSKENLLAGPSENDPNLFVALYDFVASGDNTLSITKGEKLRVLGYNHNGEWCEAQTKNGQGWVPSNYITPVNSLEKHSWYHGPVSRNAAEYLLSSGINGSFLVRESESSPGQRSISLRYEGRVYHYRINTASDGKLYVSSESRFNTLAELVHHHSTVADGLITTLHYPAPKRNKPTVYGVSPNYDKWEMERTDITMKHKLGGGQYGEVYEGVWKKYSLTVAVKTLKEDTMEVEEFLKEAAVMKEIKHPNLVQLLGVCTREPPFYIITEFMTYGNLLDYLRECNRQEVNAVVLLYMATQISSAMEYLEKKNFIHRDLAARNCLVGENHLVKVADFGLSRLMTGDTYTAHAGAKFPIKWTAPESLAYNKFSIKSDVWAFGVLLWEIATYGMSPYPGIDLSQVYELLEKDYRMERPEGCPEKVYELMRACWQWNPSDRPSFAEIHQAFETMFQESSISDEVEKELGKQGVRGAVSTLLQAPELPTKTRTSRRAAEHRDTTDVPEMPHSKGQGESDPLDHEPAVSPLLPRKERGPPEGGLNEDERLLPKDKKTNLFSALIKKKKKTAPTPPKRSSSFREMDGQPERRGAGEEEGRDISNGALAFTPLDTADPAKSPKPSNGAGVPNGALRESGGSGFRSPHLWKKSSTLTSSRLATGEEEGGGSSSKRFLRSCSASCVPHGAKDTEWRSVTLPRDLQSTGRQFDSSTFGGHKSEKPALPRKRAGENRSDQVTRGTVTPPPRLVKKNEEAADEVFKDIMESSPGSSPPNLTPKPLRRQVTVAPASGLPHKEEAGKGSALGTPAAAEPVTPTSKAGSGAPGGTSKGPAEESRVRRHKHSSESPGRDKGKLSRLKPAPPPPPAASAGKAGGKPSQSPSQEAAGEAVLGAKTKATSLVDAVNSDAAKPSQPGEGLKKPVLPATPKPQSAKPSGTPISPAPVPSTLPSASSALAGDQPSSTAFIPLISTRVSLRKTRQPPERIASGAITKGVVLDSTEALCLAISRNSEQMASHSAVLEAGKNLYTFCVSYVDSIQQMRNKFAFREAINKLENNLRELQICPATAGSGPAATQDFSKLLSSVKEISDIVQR

[6] = system: CDK2; design: method as in ChEMBL23 (accessed: 23/08/2018); settings: average of reported values; ref ChEMBL23 (accessed: 23/08/2018); cited from earlier work
[7] = target: T3, ABL2/ARG (Homo sapiens, UniProt P42684); experiment: HotSpot in vitro kinase radiometric assay; format: biochemical
T3 construct: purchased Reaction Biology (HotSpot contract assay)
T3 sequence (P42684 whole entry): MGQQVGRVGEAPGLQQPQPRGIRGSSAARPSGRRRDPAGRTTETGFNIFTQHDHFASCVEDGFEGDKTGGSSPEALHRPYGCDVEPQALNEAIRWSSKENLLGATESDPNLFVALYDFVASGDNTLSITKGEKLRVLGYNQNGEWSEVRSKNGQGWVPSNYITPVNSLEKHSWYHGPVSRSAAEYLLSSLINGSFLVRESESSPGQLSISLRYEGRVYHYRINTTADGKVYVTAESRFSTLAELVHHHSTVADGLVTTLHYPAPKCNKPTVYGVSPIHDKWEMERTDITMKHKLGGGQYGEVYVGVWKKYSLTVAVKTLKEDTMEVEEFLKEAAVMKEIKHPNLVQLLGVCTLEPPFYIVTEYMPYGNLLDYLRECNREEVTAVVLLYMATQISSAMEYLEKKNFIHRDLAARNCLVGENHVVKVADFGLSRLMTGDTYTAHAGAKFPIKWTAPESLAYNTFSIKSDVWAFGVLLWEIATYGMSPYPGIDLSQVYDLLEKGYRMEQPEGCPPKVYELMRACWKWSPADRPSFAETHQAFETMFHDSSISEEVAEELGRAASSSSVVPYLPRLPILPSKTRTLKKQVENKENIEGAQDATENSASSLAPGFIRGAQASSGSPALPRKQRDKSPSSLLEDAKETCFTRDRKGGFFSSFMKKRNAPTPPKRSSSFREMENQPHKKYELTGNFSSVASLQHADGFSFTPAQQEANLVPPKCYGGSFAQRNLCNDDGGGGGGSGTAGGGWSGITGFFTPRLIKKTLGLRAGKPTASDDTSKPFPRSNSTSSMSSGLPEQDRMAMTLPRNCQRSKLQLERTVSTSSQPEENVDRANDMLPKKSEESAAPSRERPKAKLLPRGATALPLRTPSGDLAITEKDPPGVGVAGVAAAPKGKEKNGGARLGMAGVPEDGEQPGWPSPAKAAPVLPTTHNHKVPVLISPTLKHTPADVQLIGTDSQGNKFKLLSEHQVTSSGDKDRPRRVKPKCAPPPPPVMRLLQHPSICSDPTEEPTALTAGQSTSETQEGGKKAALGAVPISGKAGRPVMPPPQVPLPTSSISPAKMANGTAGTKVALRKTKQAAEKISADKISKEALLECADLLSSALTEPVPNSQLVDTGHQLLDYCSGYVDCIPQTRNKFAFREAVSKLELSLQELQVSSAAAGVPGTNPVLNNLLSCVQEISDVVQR

[8] = system: ROCK2; design: method as in ChEMBL23 (accessed: 23/08/2018); settings: average of reported values; ref ChEMBL23 (accessed: 23/08/2018); cited from earlier work
[9] = system: HSP90AB1; design: method as in ChEMBL23 (accessed: 23/08/2018); settings: average of reported values; ref ChEMBL23 (accessed: 23/08/2018); cited from earlier work
[10] = system: CSF1R; design: method as in ChEMBL23 (accessed: 23/08/2018); settings: average of reported values; ref ChEMBL23 (accessed: 23/08/2018); cited from earlier work
[11] = target: T4, FYN (Homo sapiens, UniProt P06241); experiment: HotSpot in vitro kinase radiometric assay; format: biochemical
T4 construct: purchased Reaction Biology (HotSpot contract assay)
T4 sequence (P06241 whole entry): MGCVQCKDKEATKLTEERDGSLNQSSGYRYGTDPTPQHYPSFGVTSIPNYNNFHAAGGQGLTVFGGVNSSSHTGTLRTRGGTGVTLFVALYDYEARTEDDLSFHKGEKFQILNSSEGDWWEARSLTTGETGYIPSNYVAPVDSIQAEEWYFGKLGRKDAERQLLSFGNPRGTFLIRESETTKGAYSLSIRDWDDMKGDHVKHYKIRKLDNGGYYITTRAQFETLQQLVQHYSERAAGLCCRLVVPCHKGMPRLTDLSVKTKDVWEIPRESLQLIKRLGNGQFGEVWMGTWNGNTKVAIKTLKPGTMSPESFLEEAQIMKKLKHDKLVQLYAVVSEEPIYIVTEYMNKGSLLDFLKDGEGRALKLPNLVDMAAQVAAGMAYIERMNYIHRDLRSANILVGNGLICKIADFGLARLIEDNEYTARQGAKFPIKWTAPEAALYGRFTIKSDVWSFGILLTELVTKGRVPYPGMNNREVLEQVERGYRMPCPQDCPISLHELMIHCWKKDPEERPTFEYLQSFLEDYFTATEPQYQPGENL

[12] = system: PIM1; design: method as in ChEMBL23 (accessed: 23/08/2018); settings: average of reported values; ref ChEMBL23 (accessed: 23/08/2018); cited from earlier work
[13] = target: T5, PASK (Homo sapiens, UniProt Q96RG2); experiment: HotSpot in vitro kinase radiometric assay; format: biochemical
T5 construct: purchased Reaction Biology (HotSpot contract assay)
Source text: (§1) Accordingly, we selected five additional representative HSP90 inhibitors, at least one from each chemical class, including both synthetic inhibitors and natural products.
(§2) Accordingly, we screened the hit compound and the two leads for kinase off-target inhibition using the 16-kinase panel and the same in vitro catalytic assay used previously.
(§3) This radioisotope binding assay was designed to directly detect the true product without the use of modified substrates, coupling enzymes, or detection antibodies thus enabling to directly measure inhibition of catalytic activity. Test or control compounds were incubated with kinase, substrate, cofactors, and radioisotope-labeled ATP (32P-ɣ-ATP or 33P-ɣ-ATP). The reaction mixtures were then spotted onto filter papers, which bind the radioisotope-labeled catalytic product.

[14] = target: T6, TRKA (Homo sapiens, UniProt P04629); experiment: HotSpot in vitro kinase radiometric assay; format: biochemical
T6 construct: purchased Reaction Biology (HotSpot contract assay)
Source text: as §1, §2, §3

[15] = target: T7, LCK (Homo sapiens, UniProt P06239); experiment: HotSpot in vitro kinase radiometric assay; format: biochemical
T7 construct: purchased Reaction Biology (HotSpot contract assay)

[16] = target: T8, FGR (Homo sapiens, UniProt P09769); experiment: HotSpot in vitro kinase radiometric assay; format: biochemical
T8 construct: purchased Reaction Biology (HotSpot contract assay)

[17] = target: T9, PEAK1 (Homo sapiens, UniProt Q9H792); experiment: HotSpot in vitro kinase radiometric assay; format: biochemical
T9 construct: purchased Reaction Biology (HotSpot contract assay)

[18] = target: DDR1 (Homo sapiens, UniProt Q08345); experiment: HotSpot in vitro kinase radiometric assay; format: biochemical; design: purchased Reaction Biology (HotSpot contract assay)
DDR1, sequence (Q08345 19-913): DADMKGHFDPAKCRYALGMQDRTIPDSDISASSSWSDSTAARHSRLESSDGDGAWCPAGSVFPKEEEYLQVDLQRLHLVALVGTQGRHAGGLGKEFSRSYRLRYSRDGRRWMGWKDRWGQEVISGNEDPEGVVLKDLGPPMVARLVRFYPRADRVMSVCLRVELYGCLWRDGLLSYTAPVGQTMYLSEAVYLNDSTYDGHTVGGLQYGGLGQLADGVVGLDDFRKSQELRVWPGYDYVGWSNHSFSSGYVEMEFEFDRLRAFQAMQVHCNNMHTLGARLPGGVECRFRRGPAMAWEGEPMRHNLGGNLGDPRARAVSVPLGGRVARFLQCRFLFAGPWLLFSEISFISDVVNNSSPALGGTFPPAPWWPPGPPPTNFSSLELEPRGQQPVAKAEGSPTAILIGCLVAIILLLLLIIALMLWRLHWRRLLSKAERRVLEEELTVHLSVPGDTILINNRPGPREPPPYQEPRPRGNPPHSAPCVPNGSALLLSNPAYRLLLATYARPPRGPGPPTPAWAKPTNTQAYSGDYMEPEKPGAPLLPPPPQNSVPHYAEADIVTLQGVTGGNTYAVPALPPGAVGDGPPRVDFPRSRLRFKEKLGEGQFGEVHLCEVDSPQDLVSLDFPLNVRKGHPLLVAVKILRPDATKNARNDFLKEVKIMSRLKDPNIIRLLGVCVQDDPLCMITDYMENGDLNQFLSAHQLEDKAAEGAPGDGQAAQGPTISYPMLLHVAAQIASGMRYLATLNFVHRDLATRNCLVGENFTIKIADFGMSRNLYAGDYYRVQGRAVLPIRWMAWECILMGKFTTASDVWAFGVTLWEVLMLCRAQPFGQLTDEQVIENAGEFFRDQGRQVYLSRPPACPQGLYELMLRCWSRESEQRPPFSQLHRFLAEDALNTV

[19] = system: PRKD3; design: method as in ChEMBL23 (accessed: 23/08/2018); settings: average of reported values; ref ChEMBL23 (accessed: 23/08/2018); cited from earlier work
[20] = system: ROCK1; design: method as in ChEMBL23 (accessed: 23/08/2018); settings: average of reported values; ref ChEMBL23 (accessed: 23/08/2018); cited from earlier work
[21] = target: T10, PDK2/PDHK2 (Homo sapiens, UniProt Q15119); experiment: HotSpot in vitro kinase radiometric assay; format: biochemical; settings: read-out: % inhibition at 10 uM: PDK2
T10 construct: purchased Reaction Biology (HotSpot contract assay)
How it was run: (§4)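 Radiometric catalytic assay: compounds incubated with kinase, substrate, cofactors and ³²P- or ³³P-γ-ATP. Reactions spotted onto filter paper that binds the labeled product, giving a direct measure of inhibition of catalytic activity without modified substrates or coupling enzymes.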

[22] = target: T11, LYN B (Homo sapiens, UniProt P07948); experiment: HotSpot in vitro kinase radiometric assay; format: biochemical
T11 construct: purchased Reaction Biology (HotSpot contract assay)
T11 sequence (P07948 1-491 isoform P07948-2): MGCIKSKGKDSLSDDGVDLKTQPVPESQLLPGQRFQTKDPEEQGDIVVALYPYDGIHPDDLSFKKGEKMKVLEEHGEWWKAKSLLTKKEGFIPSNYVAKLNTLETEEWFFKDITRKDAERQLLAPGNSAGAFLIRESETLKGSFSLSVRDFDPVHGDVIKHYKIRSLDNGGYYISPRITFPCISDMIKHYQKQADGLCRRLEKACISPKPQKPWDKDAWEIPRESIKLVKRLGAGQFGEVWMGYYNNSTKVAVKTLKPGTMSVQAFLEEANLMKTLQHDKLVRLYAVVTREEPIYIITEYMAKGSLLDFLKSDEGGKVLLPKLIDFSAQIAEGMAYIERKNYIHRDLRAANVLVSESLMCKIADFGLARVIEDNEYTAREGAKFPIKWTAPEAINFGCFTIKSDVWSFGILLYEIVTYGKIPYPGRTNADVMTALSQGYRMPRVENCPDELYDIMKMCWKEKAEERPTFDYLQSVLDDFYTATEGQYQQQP
How it was run: as §4

[23] = target: T12, c-Src (Homo sapiens, UniProt P12931); experiment: HotSpot in vitro kinase radiometric assay; format: biochemical
T12 construct: purchased Reaction Biology (HotSpot contract assay)
How it was run: as §4

[24] = target: T13, PDK4/PDKH4 (Homo sapiens, UniProt Q16654); experiment: HotSpot in vitro kinase radiometric assay; format: biochemical
T13 construct: purchased Reaction Biology (HotSpot contract assay)
How it was run: as §4

[25] = target: T14, BLK (Homo sapiens, UniProt P51451); experiment: HotSpot in vitro kinase radiometric assay; format: biochemical
T14 construct: purchased Reaction Biology (HotSpot contract assay)
T14 sequence (P51451 whole entry): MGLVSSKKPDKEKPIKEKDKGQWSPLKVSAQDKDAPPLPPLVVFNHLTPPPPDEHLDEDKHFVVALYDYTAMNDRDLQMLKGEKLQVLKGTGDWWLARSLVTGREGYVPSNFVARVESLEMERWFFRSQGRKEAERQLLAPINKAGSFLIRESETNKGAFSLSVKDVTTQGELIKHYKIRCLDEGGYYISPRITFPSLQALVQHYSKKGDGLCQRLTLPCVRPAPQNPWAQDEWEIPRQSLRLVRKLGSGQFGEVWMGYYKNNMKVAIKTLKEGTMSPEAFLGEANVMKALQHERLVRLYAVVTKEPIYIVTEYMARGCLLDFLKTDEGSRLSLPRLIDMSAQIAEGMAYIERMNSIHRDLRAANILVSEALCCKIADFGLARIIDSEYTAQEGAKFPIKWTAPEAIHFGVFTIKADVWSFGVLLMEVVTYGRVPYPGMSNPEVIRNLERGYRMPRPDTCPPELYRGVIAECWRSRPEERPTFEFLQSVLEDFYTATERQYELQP
How it was run: as §4

CCNC(=O)c1n[nH]c(-c2cc(Cl)c(O)cc2O)c1-c1ccc(OC)cc1 [VER-49009]
pActivity, RPS6KA3 [1]: 5.5 | remaining activity at 10 µM ([2]; read-out: % Enzyme Activity (relative to DMSO controls), YES/YES1, 10uM, ATP 50 uM, Data 1, Data 2): 77.2% | inhibition at 10 µM ([2]; read-out: % inhibition at 10 uM: YES): 24 ± 1% | pActivity, PRKD2 [3]: 5.8 | remaining activity at 10 µM ([4]; read-out: % Enzyme Activity (relative to DMSO controls), TRKC, 10uM, ATP 100 uM, Data 1, Data 2): 68.4% | inhibition at 10 µM ([4]; read-out: % inhibition at 10 uM: TRKC): 28 ± 5% | remaining activity at 10 µM ([5]; read-out: % Enzyme Activity (relative to DMSO controls), ABL1, 10uM, ATP 40 uM, Data 1, Data 2): 80.2% | inhibition at 10 µM ([5]; read-out: % inhibition at 10 uM: ABL1): 14 ± 8% | pActivity, CDK2 [6]: 5.2 | remaining activity at 10 µM ([7]; read-out: % Enzyme Activity (relative to DMSO controls), ABL2/ARG, 10uM, ATP 30 uM, Data 1, Data 2): 101% | inhibition at 10 µM ([7]; read-out: % inhibition at 10 uM: ABL2): 1 ± 3% | pActivity, ROCK2 [8]: 5.6 | pActivity, HSP90AB1 [9]: 7.6 | pActivity, CSF1R [10]: 5.9 | remaining activity at 10 µM ([11]; read-out: % Enzyme Activity (relative to DMSO controls), FYN, 10uM, ATP 30 uM, Data 1, Data 2): 89.2% | inhibition at 10 µM ([11]; read-out: % inhibition at 10 uM: FYN): 13 ± 3% | pActivity, PIM1 [12]: 5.6 | remaining activity at 10 µM ([13]; read-out: % Enzyme Activity (relative to DMSO controls), PASK, 10uM, ATP 50 uM, Data 1, Data 2): 98% | inhibition at 10 µM ([13]; read-out: % inhibition at 10 uM: PASK): 2% | remaining activity at 10 µM ([14]; read-out: % Enzyme Activity (relative to DMSO controls), TRKA, 10uM, ATP 100 uM, Data 1, Data 2): 20.6% | inhibition at 10 µM ([14]; read-out: % inhibition at 10 uM: TRKA): 79 ± 1% | remaining activity at 10 µM ([15]; read-out: % Enzyme Activity (relative to DMSO controls), LCK, 10uM, ATP 15 uM, Data 1, Data 2): 72.8% | inhibition at 10 µM ([15]; read-out: % inhibition at 10 uM: LCK): 25 ± 3% | remaining activity at 10 µM ([16]; read-out: % Enzyme Activity (relative to DMSO controls), FGR, 10uM, ATP 50 uM, Data 1, Data 2): 99% | inhibition at 10 µM ([16]; read-out: % inhibition at 10 uM: FGR): 1% | remaining activity at 10 µM ([17]; read-out: % Enzyme Activity (relative to DMSO controls), PEAK1, 10uM, ATP 30 uM, Data 1, Data 2): 75.5% | inhibition at 10 µM ([17]; read-out: % inhibition at 10 uM: PEAK1): 24% | remaining activity at 10 µM ([18]; read-out: % Enzyme Activity (relative to DMSO controls), DDR1, 10uM, ATP 100 uM, Data 1, Data 2): 65.8% | inhibition at 10 µM ([18]; read-out: % inhibition at 10 uM: DDR1): 29 ± 8% | pActivity, PRKD3 [19]: 5.8 | pActivity, ROCK1 [20]: 5.4 | inhibition at 10 µM [21]: 95 ± 5% | remaining activity at 10 µM ([22]; read-out: % Enzyme Activity (relative to DMSO controls), LYN B, 10uM, ATP 20 uM, Data 1, Data 2): 108% | inhibition at 10 µM ([22]; read-out: % inhibition at 10 uM: LYN B): -6 ± 3% | remaining activity at 10 µM ([23]; read-out: % Enzyme Activity (relative to DMSO controls), c-Src, 10uM, ATP 15 uM, Data 1, Data 2): 65.9% | inhibition at 10 µM ([23]; read-out: % inhibition at 10 uM: SRC): 35 ± 1% | remaining activity at 10 µM ([24]; read-out: % Enzyme Activity (relative to DMSO controls), PDK4/PDKH4, 10uM, ATP 30 uM, Data 1, Data 2): 15.1% | inhibition at 10 µM ([24]; read-out: % inhibition at 10 uM: PDK4): 86 ± 1% | remaining activity at 10 µM ([25]; read-out: % Enzyme Activity (relative to DMSO controls), BLK, 10uM, ATP 10 uM, Data 1, Data 2): 70.1% | inhibition at 10 µM ([25]; read-out: % inhibition at 10 uM: BLK): 24 ± 8%
